Experimental data taken from US8889123B2, “Compositions and soft tissue replacement methods” (Allergan, Inc., priority 2010, dated 2014).

Key:
[1] = test system: FGF-2; experiment: Incisional wound model, FGF-2 expression in skin wound tissue by Western blot; type: in vivo, Sprague-Dawley rats; conditions: topical 0.004% twice daily vs vehicle
From the text: (§1) To test whether the compounds of Formula I promote the formation of blood vessels, and incisional wound model was employed over a 14-day period. Sprague-Dawley rats (180-200 g) were anesthetized, the backs shaved, and a 2-cm long incision was made on the back skin of rats under sterile conditions, reaching the deep fascia. The wound was immediately closed with 4-0 sutures. The animals were topically treated with vehicle or Compound 1 at 0.004% twice daily. The vehicle contains ethanol 30%, propylene glycol 12%, dipropylene glycol 5%, benzyl alcohol 5%, glycerol 3% and normal saline 45%. Biopsy samples of skin wound tissues were analyzed with Western blots day-7 and day-14 post-surgery. Tissue samples about 1 mm thick were taken from both sides of the wound. Protein was extracted, and FGF-2/VEGF expression was monitored, with Western blot analysis.

[2] = test system: VEGF; experiment: Incisional wound model, VEGF expression in skin wound tissue by Western blot; type: in vivo, Sprague-Dawley rats; conditions: topical 0.004% twice daily vs vehicle
From the text: as §1

[3] = test system: FGF-2; experiment: Oral ulcer wound model, FGF-2 up-regulation; type: in vivo
[4] = test system: VEGF; experiment: Oral ulcer wound model, VEGF up-regulation; type: in vivo

CC1(C)C(=O)[C@H](C/C=C\CCCC(=O)O)[C@@H](/C=C/[C@H](O)CCc2sc3ccccc3c2Cl)[C@@H]1O [Compound 1]
enhanced expression of FGF-2, normalized with β-actin ([1]; day-7, P=0.004): 60% | increase in FGF-2 synthesis over the whole study period ([1]; whole study period (day-14), P=0.04): persisted for the whole study period | VEGF expression increase, normalized with β-actin ([2]; day-7, P=0.039): 25% | increase in VEGF synthesis by day-14 ([2]; day-14): returned to the baseline | up-regulation of FGF-2 [3]: up-regulation | up-regulation of VEGF [4]: up-regulation
